# Test results as given in the NIST ThermoML archive (doi:10.1016/j.tca.2009.12.001).
# Numbers after ± are expanded uncertainties.
# How the values were obtained:
# [1] = refractive index (Na D-line) (dimensionless); mn = molality of the nth substance listed, in mol/kg; conditions: 303.15 K, 101 kPa, Liquid, Standard Abbe refractometry
# [2] = cn = amount concentration of the nth substance listed, in mol/dm3; conditions: 101 kPa, Liquid; for viscosity: Capillary tube (Ostwald / Ubbelohde) method; for mass density: Pycnometric method
# [3] = mn = molality of the nth substance listed, in mol/kg; conditions: 303.15 K, 101 kPa, Liquid, Linear variable-path acoustic interferometer
# [4] = wn = mass fraction of the nth substance listed; conditions: 101 kPa, Liquid; for viscosity: Capillary tube (Ostwald / Ubbelohde) method; for speed of sound: Linear variable-path acoustic interferometer; for mass density: Pycnometric method
# [5] = refractive index (Na D-line) (dimensionless); wn = mass fraction of the nth substance listed; conditions: 303.15 K, 101 kPa, Liquid, Standard Abbe refractometry
# [6] = refractive index (Na D-line) (dimensionless); conditions: 303.15 K; 101.33 kPa; Liquid; Standard Abbe refractometry
# [7] = 101 kPa, Liquid; for viscosity: Capillary tube (Ostwald / Ubbelohde) method; for mass density: Pycnometric method
compound,measurement,setting,value
CC(C)[C@@H]1CC[C@@H](C)C[C@H]1O [DL-menthol] + CC(C)O,refractive index,[1]; m1 = 0.0323,1.3741 ± 0.0009
same,refractive index,[1]; m1 = 0.0453,1.3744 ± 0.0009
same,refractive index,[1]; m1 = 0.0584,1.3747 ± 0.0009
same,refractive index,[1]; m1 = 0.0715,1.375 ± 0.0009
same,refractive index,[1]; m1 = 0.0978,1.3755 ± 0.0009
same,refractive index,[1]; m1 = 0.111,1.3757 ± 0.0009
same,viscosity,"[2]; 303.15 K, c1 = 0.025",1.757 ± 0.022 mPa·s
same,viscosity,"[2]; 303.15 K, c1 = 0.035",1.761 ± 0.022 mPa·s
same,viscosity,"[2]; 303.15 K, c1 = 0.045",1.766 ± 0.022 mPa·s
same,viscosity,"[2]; 303.15 K, c1 = 0.055",1.771 ± 0.022 mPa·s
same,viscosity,"[2]; 303.15 K, c1 = 0.075",1.781 ± 0.022 mPa·s
same,viscosity,"[2]; 303.15 K, c1 = 0.085",1.785 ± 0.022 mPa·s
same,mass density,"[2]; 303.15 K, c1 = 0.025",777.6 ± 0.8 kg/m3
same,mass density,"[2]; 303.15 K, c1 = 0.035",777.8 ± 0.8 kg/m3
same,mass density,"[2]; 303.15 K, c1 = 0.045",778 ± 0.8 kg/m3
same,mass density,"[2]; 303.15 K, c1 = 0.055",778.3 ± 0.8 kg/m3
same,mass density,"[2]; 303.15 K, c1 = 0.075",778.8 ± 0.8 kg/m3
same,mass density,"[2]; 303.15 K, c1 = 0.085",779.1 ± 0.8 kg/m3
same,viscosity,"[2]; 313.15 K, c1 = 0.0247",1.34 ± 0.017 mPa·s
same,viscosity,"[2]; 313.15 K, c1 = 0.0346",1.344 ± 0.017 mPa·s
same,viscosity,"[2]; 313.15 K, c1 = 0.0445",1.349 ± 0.017 mPa·s
same,viscosity,"[2]; 313.15 K, c1 = 0.0544",1.355 ± 0.017 mPa·s
same,viscosity,"[2]; 313.15 K, c1 = 0.0742",1.364 ± 0.017 mPa·s
same,viscosity,"[2]; 313.15 K, c1 = 0.084",1.368 ± 0.017 mPa·s
same,mass density,"[2]; 313.15 K, c1 = 0.0247",768.8 ± 0.8 kg/m3
same,mass density,"[2]; 313.15 K, c1 = 0.0346",769 ± 0.8 kg/m3
same,mass density,"[2]; 313.15 K, c1 = 0.0445",769.2 ± 0.8 kg/m3
same,mass density,"[2]; 313.15 K, c1 = 0.0544",769.5 ± 0.8 kg/m3
same,mass density,"[2]; 313.15 K, c1 = 0.0742",770 ± 0.8 kg/m3
same,mass density,"[2]; 313.15 K, c1 = 0.084",770.3 ± 0.8 kg/m3
same,viscosity,"[2]; 323.15 K, c1 = 0.0243",1.012 ± 0.013 mPa·s
same,viscosity,"[2]; 323.15 K, c1 = 0.034",1.017 ± 0.013 mPa·s
same,viscosity,"[2]; 323.15 K, c1 = 0.0438",1.022 ± 0.013 mPa·s
same,viscosity,"[2]; 323.15 K, c1 = 0.0535",1.026 ± 0.013 mPa·s
same,viscosity,"[2]; 323.15 K, c1 = 0.073",1.034 ± 0.013 mPa·s
same,viscosity,"[2]; 323.15 K, c1 = 0.0827",1.039 ± 0.013 mPa·s
same,mass density,"[2]; 323.15 K, c1 = 0.0243",756.4 ± 0.8 kg/m3
same,mass density,"[2]; 323.15 K, c1 = 0.034",756.6 ± 0.8 kg/m3
same,mass density,"[2]; 323.15 K, c1 = 0.0438",756.8 ± 0.8 kg/m3
same,mass density,"[2]; 323.15 K, c1 = 0.0535",757.1 ± 0.8 kg/m3
same,mass density,"[2]; 323.15 K, c1 = 0.073",757.7 ± 0.8 kg/m3
same,mass density,"[2]; 323.15 K, c1 = 0.0827",758 ± 0.8 kg/m3
same,speed of sound,[3]; m1 = 0.0323,1135.7 ± 2.8 m/s
same,speed of sound,[3]; m1 = 0.0453,1138.2 ± 2.8 m/s
same,speed of sound,[3]; m1 = 0.0584,1141.2 ± 2.8 m/s
same,speed of sound,[3]; m1 = 0.0715,1144.4 ± 2.8 m/s
same,speed of sound,[3]; m1 = 0.0978,1151.1 ± 2.8 m/s
same,speed of sound,[3]; m1 = 0.111,1154.2 ± 2.8 m/s
COC(=O)c1ccccc1O [methyl 2-hydroxybenzoate] + CC(C)O,viscosity,"[4]; 303.15 K, w1 = 0.05",1.798 ± 0.011 mPa·s
same,viscosity,"[4]; 303.15 K, w1 = 0.1",1.846 ± 0.012 mPa·s
same,viscosity,"[4]; 303.15 K, w1 = 0.15",1.961 ± 0.013 mPa·s
same,speed of sound,"[4]; 303.15 K, w1 = 0.05",1146.8 ± 1.7 m/s
same,speed of sound,"[4]; 303.15 K, w1 = 0.1",1170.6 ± 1.8 m/s
same,speed of sound,"[4]; 303.15 K, w1 = 0.15",1197.7 ± 1.8 m/s
same,mass density,"[4]; 303.15 K, w1 = 0.05",790.9 ± 0.2 kg/m3
same,mass density,"[4]; 303.15 K, w1 = 0.1",805.3 ± 0.2 kg/m3
same,mass density,"[4]; 303.15 K, w1 = 0.15",822.4 ± 0.3 kg/m3
same,viscosity,"[4]; 313.15 K, w1 = 0.05",1.379 ± 0.009 mPa·s
same,viscosity,"[4]; 313.15 K, w1 = 0.1",1.437 ± 0.0094 mPa·s
same,viscosity,"[4]; 313.15 K, w1 = 0.15",1.56 ± 0.01 mPa·s
same,mass density,"[4]; 313.15 K, w1 = 0.05",782.8 ± 0.3 kg/m3
same,mass density,"[4]; 313.15 K, w1 = 0.1",794.3 ± 0.3 kg/m3
same,mass density,"[4]; 313.15 K, w1 = 0.15",812 ± 0.3 kg/m3
same,viscosity,"[4]; 323.15 K, w1 = 0.05",1.048 ± 0.007 mPa·s
same,viscosity,"[4]; 323.15 K, w1 = 0.1",1.103 ± 0.0074 mPa·s
same,viscosity,"[4]; 323.15 K, w1 = 0.15",1.227 ± 0.0082 mPa·s
same,mass density,"[4]; 323.15 K, w1 = 0.05",770.3 ± 0.3 kg/m3
same,mass density,"[4]; 323.15 K, w1 = 0.1",785.1 ± 0.3 kg/m3
same,mass density,"[4]; 323.15 K, w1 = 0.15",799.3 ± 0.3 kg/m3
same,refractive index,[5]; w1 = 0.05,1.3791 ± 0.0005
same,refractive index,[5]; w1 = 0.1,1.3852 ± 0.0005
same,refractive index,[5]; w1 = 0.15,1.3912 ± 0.0005
CC(C)O [propan-2-ol],refractive index,[6],1.3736 ± 0.0005
same,viscosity,[7]; 303.15 K,1.747 ± 0.011 mPa·s
same,speed of sound,"[7]; 303.15 K, Linear variable-path acoustic interferometer",1130.6 ± 1.7 m/s
same,mass density,[7]; 303.15 K,777.1 ± 0.2 kg/m3
same,viscosity,[7]; 313.15 K,1.33 ± 0.0086 mPa·s
same,mass density,[7]; 313.15 K,768.4 ± 0.2 kg/m3
same,viscosity,[7]; 323.15 K,1.003 ± 0.0067 mPa·s
same,mass density,[7]; 323.15 K,756 ± 0.3 kg/m3
CC(C)O [propan-2-ol] + COC(=O)c1ccccc1O,viscosity,"[4]; 303.15 K, w2 = 0",1.747 ± 0.011 mPa·s
same,speed of sound,"[4]; 303.15 K, w2 = 0",1130.6 ± 1.7 m/s
same,mass density,"[4]; 303.15 K, w2 = 0",777.1 ± 0.2 kg/m3
same,viscosity,"[4]; 313.15 K, w2 = 0",1.33 ± 0.0086 mPa·s
same,mass density,"[4]; 313.15 K, w2 = 0",768.4 ± 0.2 kg/m3
same,viscosity,"[4]; 323.15 K, w2 = 0",1.003 ± 0.0067 mPa·s
same,mass density,"[4]; 323.15 K, w2 = 0",756 ± 0.3 kg/m3
same,refractive index,[5]; w2 = 0,1.3736 ± 0.0005
